# Test results as given in patent US20260083865A1, “PROSTATE SPECIFIC MEMBRANE ANTIGEN (PSMA) LIGANDS AND USE THEREOF” (priority 2022, published 2026).
# Numbered stars: 1 amine (or outer) side, 2 acyl side, 3 side chain; on linkers, the order of the positions; unused ones are H or OH. Bridge positions count the residues as written; N and C are the ends. Square brackets hold non-standard residues; d marks the D form. Side chains are listed from the residue outwards. Peptide text beside a SMILES is read from it. * marks the point of attachment. X7 = O=C(O)CN1CCN(CC(=O)O)CCN(CC(=O)NC2CCN(CC(=O)*)CC2)CCN(CC(=O)O)CC1; DOTA = O=C(O)CN1CCN(CC(=O)O)CCN(CC(=O)*)CCN(CC(=O)O)CC1; Phe(3-Cl) = N[C@@H](Cc1cccc(Cl)c1)C(=O)O; Phe(4-CN) = N#Cc1ccc(C[C@H](N)C(=O)O)cc1; Phe(4-Cl) = N[C@@H](Cc1ccc(Cl)cc1)C(=O)O; X1 = O=C(CC1CCN([*:1])CC1)[*:2]; Cit = NC(=O)NCCC[C@H](N)C(=O)O; Tle = CC(C)(C)[C@H](N)C(=O)O; AEEA = NCCOCCOCC(=O)O; Aib = CC(C)(N)C(=O)O
# Assays:
# [1] = molecular target: T1, Fc-fusion protein of human PSMA (hPSMA-Fc) (Homo sapiens, UniProt Q04609); assay: Surface plasmon resonance assay (Biacore T200, single cycle kinetic); type: binding; conditions: PSMA SPR assay, hPSMA-Fc, 25° C.; pKD category; read-out: pKD CAT (converted)
# T1 construct: purchased Acro Biosystems PSA-H5264
# T1 sequence (Q04609 44-750 limits assumed): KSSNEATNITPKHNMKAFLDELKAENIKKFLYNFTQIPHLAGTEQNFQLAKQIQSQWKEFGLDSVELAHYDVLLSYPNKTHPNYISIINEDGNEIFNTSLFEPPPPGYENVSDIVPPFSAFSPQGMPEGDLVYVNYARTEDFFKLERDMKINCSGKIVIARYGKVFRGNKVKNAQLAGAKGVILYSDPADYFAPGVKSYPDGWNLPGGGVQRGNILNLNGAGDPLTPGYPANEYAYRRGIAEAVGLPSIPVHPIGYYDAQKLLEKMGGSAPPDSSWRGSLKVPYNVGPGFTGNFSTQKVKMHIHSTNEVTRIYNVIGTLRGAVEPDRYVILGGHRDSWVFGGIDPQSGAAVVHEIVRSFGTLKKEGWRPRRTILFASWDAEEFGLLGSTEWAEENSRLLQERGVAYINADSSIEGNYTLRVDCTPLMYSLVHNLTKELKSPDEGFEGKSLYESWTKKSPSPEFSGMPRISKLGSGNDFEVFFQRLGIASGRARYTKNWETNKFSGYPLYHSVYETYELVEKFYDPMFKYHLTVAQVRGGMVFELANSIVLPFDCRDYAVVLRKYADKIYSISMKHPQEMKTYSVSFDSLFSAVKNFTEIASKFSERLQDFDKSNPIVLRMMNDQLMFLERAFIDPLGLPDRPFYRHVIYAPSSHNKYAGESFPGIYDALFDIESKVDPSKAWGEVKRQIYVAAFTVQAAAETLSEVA
# Procedure, shortened: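 hPSMA-Fc was captured (~1000 RU) on an Fc-binding-peptide CM5 chip, and compounds were run in single cycle kinetic mode at 25° C in HBST with 0.1% DMSO. Double-blank-corrected sensorgrams were fitted to a 1:1 Langmuir model to give KD, reported as pKD.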
# [2] = molecular target: T2, PSMA-expressing C4-2 cells (Homo sapiens, UniProt Q04609); assay: FACS binding assay (competition with 50 nM PSM-0183); conditions: FACS binding, PSMA-expressing C4-2 cells; pIC50 category; read-out: pIC50 [C4-2] CAT (converted)
# T2 construct: PSMA-expressing C4-2 cells (ATCC, Cat. No. CRL-3314) were cultured in RPMI-1640; host or cells: C4-2 cells
# T2 sequence (Q04609 whole entry): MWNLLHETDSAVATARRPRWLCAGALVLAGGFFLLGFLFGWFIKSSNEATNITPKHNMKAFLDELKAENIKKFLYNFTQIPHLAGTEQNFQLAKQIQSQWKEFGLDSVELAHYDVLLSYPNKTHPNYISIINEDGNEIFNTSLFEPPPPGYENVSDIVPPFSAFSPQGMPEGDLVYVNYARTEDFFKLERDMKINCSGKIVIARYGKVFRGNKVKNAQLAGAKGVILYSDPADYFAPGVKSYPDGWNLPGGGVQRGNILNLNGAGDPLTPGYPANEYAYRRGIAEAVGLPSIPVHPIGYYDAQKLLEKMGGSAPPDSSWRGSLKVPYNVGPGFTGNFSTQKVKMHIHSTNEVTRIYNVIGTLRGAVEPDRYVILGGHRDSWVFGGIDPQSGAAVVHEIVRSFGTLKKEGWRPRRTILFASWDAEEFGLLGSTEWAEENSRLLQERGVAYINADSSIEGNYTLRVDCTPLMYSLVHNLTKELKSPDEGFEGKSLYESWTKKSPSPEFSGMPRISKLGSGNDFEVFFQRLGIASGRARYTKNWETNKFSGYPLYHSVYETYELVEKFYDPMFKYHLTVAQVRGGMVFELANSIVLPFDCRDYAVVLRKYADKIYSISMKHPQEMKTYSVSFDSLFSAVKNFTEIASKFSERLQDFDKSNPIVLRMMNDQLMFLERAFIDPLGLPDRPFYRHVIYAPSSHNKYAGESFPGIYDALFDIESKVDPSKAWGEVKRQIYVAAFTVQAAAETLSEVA
# Procedure, shortened: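 C4-2 cells were incubated 1 h at 4 °C with 50 nM AF488-labelled peptide PSM-0183 plus increasing test compound concentrations, then washed twice in ice-cold buffer. Median fluorescence in the AF488 channel was read by flow cytometry. IC50/pIC50 was derived by 4PL fitting of MFI versus concentration.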
Structure (SMILES),Kd [1] [nM],IC50 [2] [nM]
"CC(=O)N[C@H](C(=O)NC(C)(C)C(=O)N[C@@H](Cc1cccc(Cl)c1)C(=O)N[C@H]1CSSC[C@@H](C(=O)N[C@H](C(=O)N[C@H](C(=O)N2CCC(CC(=O)N[C@H](CCCCNC(=O)CN3CCN(CC(=O)O)CCN(CC(=O)O)CCN(CC(=O)O)CC3)C(N)=O)CC2)[C@@H](C)O)C(C)(C)C)NC(=O)[C@H](CC(N)=O)NC(=O)C(C)(C)NC(=O)[C@H](CCCNC(N)=O)NC(=O)[C@H](CCCCN)NC1=O)[C@@H](C)O [PSM-0275, Ac-Thr-Aib-Mcf-[Cys-Lys-Cit-Aib-Asn-Cys]-Tle-Thr-Cmp-lys(DOTA)-NH2] (Ac-T[Aib][Phe(3-Cl)]CK[Cit][Aib]NC[Tle]T[X1][dK](DOTA)-NH2; disulfide 4-9)",12.6 to 126,200 to 1260
"C[C@@H](O)[C@H](NC(=O)[C@@H](NC(=O)[C@@H]1CSSC[C@H](NC(=O)[C@H](Cc2ccc(Cl)cc2)NC(=O)[C@H](CCC(=O)O)NC(=O)[C@@H](NC(=O)CC2CCN(C(=O)CN3CCN(CC(=O)O)CCN(CC(=O)O)CCN(CC(=O)O)CC3)CC2)[C@@H](C)O)C(=O)N[C@@H](CCCCN)C(=O)N[C@@H](CCCNC(=N)N)C(=O)NC(C)(C)C(=O)N[C@@H](CC(N)=O)C(=O)N1)C(C)(C)C)C(N)=O [PSM-0276, DOTA-Cmp-Thr-Glu-Pcf-[Cys-Lys-Arg-Aib-Asn-Cys]-Tle-Thr-NH2] ({DOTA}-[X1]TE[Phe(4-Cl)]CKR[Aib]NC[Tle]T-NH2; disulfide 5-10)",> 501,> 3160
"CC(=O)N[C@H](C(=O)NC(C)(C)C(=O)N[C@@H](Cc1ccc(C#N)cc1)C(=O)N[C@H]1CSSC[C@@H](C(=O)N[C@H](C(=O)N[C@H](C(N)=O)[C@@H](C)O)C(C)(C)C)NC(=O)[C@H](CC(N)=O)NC(=O)C(C)(C)NC(=O)[C@H](CCCNC(=N)N)NC(=O)[C@H](CCCCN)NC1=O)[C@@H](C)O [PSM-0278, Ac-Thr-Aib-Pnf-[Cys-Lys-Arg-Aib-Asn-Cys]-Tle-Thr-NH2] (Ac-T[Aib][Phe(4-CN)]CKR[Aib]NC[Tle]T-NH2; disulfide 4-9)",< 12.6,< 200
"CC(=O)N[C@H](C(=O)NC(C)(C)C(=O)N[C@@H](Cc1ccccc1)C(=O)N[C@H]1CSSC[C@@H](C(=O)N[C@H](C(=O)N[C@H](C(N)=O)[C@@H](C)O)C(C)(C)C)NC(=O)[C@H](CO)NC(=O)C(C)(C)NC(=O)[C@H](CCCNC(=N)N)NC(=O)[C@H](CCCCN)NC1=O)[C@@H](C)O [PSM-0279, Ac-Thr-Aib-Phe-[Cys-Lys-Arg-Aib-Ser-Cys]-Tle-Thr-NH2] (Ac-T[Aib]FCKR[Aib]SC[Tle]T-NH2; disulfide 4-9)",< 12.6,< 200
"CC(=O)N[C@H](C(=O)NC(C)(C)C(=O)N[C@@H](Cc1ccccc1)C(=O)N[C@H]1CSSC[C@@H](C(=O)N[C@H](C(=O)N[C@H](C(=O)N[C@@H](CC(=O)O)C(N)=O)[C@@H](C)O)C(C)(C)C)NC(=O)[C@H](CC(N)=O)NC(=O)C(C)(C)NC(=O)[C@H](CCCNC(N)=O)NC(=O)[C@H](CCCCN)NC1=O)[C@@H](C)O [PSM-0280, Ac-Thr-Aib-Phe-[Cys-Lys-Cit-Aib-Asn-Cys]-Tle-Thr-Asp-NH2] (Ac-T[Aib]FCK[Cit][Aib]NC[Tle]TD-NH2; disulfide 4-9)",< 12.6,< 200
"CC(=O)N[C@@H](Cc1ccc(Cl)cc1)C(=O)N[C@H]1CSSC[C@@H](C(=O)N[C@H](C(N)=O)C(C)(C)C)NC(=O)[C@H](CC(N)=O)NC(=O)C(C)(C)NC(=O)[C@H](CCCNC(=N)N)NC(=O)[C@H](CCCCN)NC1=O [PSM-0281, Ac-Pcf-[Cys-Lys-Arg-Aib-Asn-Cys]-Tle-NH2] (Ac-[Phe(4-Cl)]CKR[Aib]NC[Tle]-NH2; disulfide 2-7)",> 501,> 3160
"CC(=O)NC(C)(C)C(=O)N[C@@H](Cc1ccc(Cl)cc1)C(=O)N[C@H]1CSSC[C@@H](C(=O)N[C@H](C(=O)N[C@H](C(N)=O)[C@@H](C)O)C(C)(C)C)NC(=O)[C@H](CC(N)=O)NC(=O)[C@H](CCCCNC(=O)CN2CCC(NC(=O)CN3CCN(CC(=O)O)CCN(CC(=O)O)CCN(CC(=O)O)CC3)CC2)NC(=O)[C@H](CCCNC(=N)N)NC(=O)[C@H](CCCCN)NC1=O [PSM-0282, Ac-Aib-Pcf-[Cys-Lys-Arg-Lys(DOTA-APAc)-Asn-Cys]-Tle-Thr-NH2] (Ac-[Aib][Phe(4-Cl)]CKRK(X7)NC[Tle]T-NH2; disulfide 3-8)",< 12.6,< 200
"CC(=O)N[C@H](C(=O)NC(C)(C)C(=O)N[C@@H](Cc1cccc(Cl)c1)C(=O)N[C@H]1CSSC[C@@H](C(=O)N[C@H](C(=O)N[C@H](C(N)=O)[C@@H](C)O)C(C)(C)C)NC(=O)[C@H](CC(N)=O)NC(=O)[C@H](CCCCNC(=O)COCCOCCNC(=O)CN2CCN(CC(=O)O)CCN(CC(=O)O)CCN(CC(=O)O)CC2)NC(=O)[C@H](CCCNC(N)=O)NC(=O)[C@H](CCCCN)NC1=O)[C@@H](C)O [PSM-0284, Ac-Thr-Aib-Mcf-[Cys-Lys-Cit-Lys(DOTA-020c)-Asn-Cys]-Tle-Thr-NH2] (Ac-T[Aib][Phe(3-Cl)]CK[Cit]K([AEEA-DOTA])NC[Tle]T-NH2; disulfide 4-9)",12.6 to 126,< 200
